Earlier results in patent publication EP4759824A1, “DANSYLAMIDE-MODIFIED COMPOUNDS TARGETING PSMA, PREPARATION METHOD THEREFOR, AND USE THEREOF” (Yantai Lannacheng Biotechnology Co., Ltd., priority 2023, dated 2025).

System: PSMA-positive mCRPC
Details: combined with SOC, mCRPC patients

lutetium Lu-177 vipivotide tetraxetan [^177Lu-PSMA-617]
median radiographic progression-free survival (SOC alone 3.4 months): 8.7 months
median overall survival (SOC alone 11.3 months): 15.3 months
